Data as given in ChEMBL document CHEMBL3885861, “Open TG-GATES”.

Species: Rattus norvegicus
Assay: Open TG-GATES - Regimen: Daily Repeat
Format: toxicity, organism-based, Sprague-Dawley
Set-up: regimen Daily Repeat, gender Male, age 6 weeks
Settings: in vivo, po, route gavage; for Eos / Fbg / Hb / Ht / Lym / MCH / MCV / Mono / Neu / PT / Plat / RBC / Ret / WBC / APTT / Bas: tissue Blood; for KIDNEY_L / KIDNEY_R / KIDNEY_TOTAL: tissue Kidney; for LIVER: tissue Liver; for ALP / ALT / AST / BUN / CRE / Ca / Cl / DBIL / GLC / IP / K / LDH / Na / PL / RALB / TBIL / TC / TP / gamma-GTP: tissue Plasma
[1] = 100 mg/kg, 72 h, dose level Middle, time 3 day
[2] = 100 mg/kg, […], dose level Middle, time 7 day
[3] = 100 mg/kg, […], dose level Middle, time 14 day
[4] = 100 mg/kg, […], dose level Middle, time 28 day
[5] = 300 mg/kg, 72 h, dose level High, time 3 day
[6] = 300 mg/kg, […], dose level High, time 7 day
[7] = 300 mg/kg, […], dose level High, time 14 day
[8] = 300 mg/kg, […], dose level High, time 28 day

NC(=O)N1c2ccccc2C=Cc2ccccc21 [CARBAMAZEPINE]
Eos [1]: 1.2%
Fbg [1]: 224.6 mg/dL
Hb [1]: 13.6 g/dL
Ht [1]: 39.9%
Lym [1]: 79%
MCH [1]: 21.3 pg
MCV [1]: 62.4 fL
Mono [1]: 2.4%
Neu [1]: 16.4%
PT [1]: 11.9 s
Plat [1]: 125.3 x10_4/uL
RBC [1]: 638.8 x10_4/ul
Ret [1]: 4.9%
WBC [1]: 79.2 x10_2/uL
KIDNEY_L [1]: 1 g
KIDNEY_R [1]: 1 g
KIDNEY_TOTAL [1]: 2.1 g
LIVER [1]: 12.1 g
ALP [1]: 795 IU/L
ALT [1]: 39.6 IU/L
AST [1]: 67.2 IU/L
BUN [1]: 15.8 mg/dL
CRE [1]: 0.4 mg/dL
Ca [1]: 11.1 mg/dL
Cl [1]: 103.4 meq/L
DBIL [1]: 0.084 mg/dL
GLC [1]: 217.2 mg/dL
IP [1]: 7.9 mg/dL
K [1]: 3.5 meq/L
LDH [1]: 212.4 IU/L
Na [1]: 141.4 meq/L
PL [1]: 154.4 mg/dL
RALB [1]: 3.4 g/dL
TBIL [1]: 0.1 mg/dL
TC [1]: 80.6 mg/dL
TP [1]: 5.8 g/dL
gamma-GTP [1]: 0.8 IU/L
TERMINAL_BW [2]: 271.4 g
TERMINAL_BW [3]: 314.7 g
TERMINAL_BW [4]: 397.6 g
APTT [2]: 20.2 s
Bas [2]: 0%
Eos [2]: 1%
Fbg [2]: 229.8 mg/dL
Hb [2]: 13.3 g/dL
Ht [2]: 39.4%
Lym [2]: 85%
MCH [2]: 21.1 pg
MCV [2]: 62.5 fL
Mono [2]: 2.6%
Neu [2]: 10.8%
PT [2]: 11.6 s
Plat [2]: 134.8 x10_4/uL
RBC [2]: 630.8 x10_4/ul
Ret [2]: 5.1%
WBC [2]: 131.2 x10_2/uL
APTT [3]: 21.8 s
Bas [3]: 0%
Eos [3]: 0.6%
Fbg [3]: 213.4 mg/dL
Hb [3]: 14.4 g/dL
Ht [3]: 41.3%
Lym [3]: 80%
MCH [3]: 20.6 pg
MCV [3]: 59.1 fL
Mono [3]: 2%
Neu [3]: 16%
PT [3]: 12.4 s
Plat [3]: 122.9 x10_4/uL
RBC [3]: 698.6 x10_4/ul
Ret [3]: 3.8%
WBC [3]: 129.1 x10_2/uL
APTT [4]: 21.1 s
Bas [4]: 0%
Eos [4]: 1.2%
Fbg [4]: 222 mg/dL
Hb [4]: 15.7 g/dL
Ht [4]: 44.3%
Lym [4]: 80%
MCH [4]: 19.5 pg
MCV [4]: 55.1 fL
Mono [4]: 2.4%
Neu [4]: 15.4%
PT [4]: 12.8 s
Plat [4]: 105.9 x10_4/uL
RBC [4]: 804 x10_4/ul
Ret [4]: 2%
WBC [4]: 98.2 x10_2/uL
KIDNEY_L [2]: 1.2 g
KIDNEY_R [2]: 1.1 g
KIDNEY_TOTAL [2]: 2.3 g
KIDNEY_L [3]: 1.3 g
KIDNEY_R [3]: 1.3 g
KIDNEY_TOTAL [3]: 2.6 g
KIDNEY_L [4]: 1.6 g
KIDNEY_R [4]: 1.5 g
KIDNEY_TOTAL [4]: 3.1 g
LIVER [2]: 14.5 g
LIVER [3]: 14.8 g
LIVER [4]: 16.8 g
ALP [2]: 857.6 IU/L
ALT [2]: 34 IU/L
AST [2]: 63 IU/L
BUN [2]: 17 mg/dL
CRE [2]: 0.5 mg/dL
Ca [2]: 10.7 mg/dL
Cl [2]: 102.2 meq/L
DBIL [2]: 0.1 mg/dL
GLC [2]: 207.6 mg/dL
IP [2]: 7.3 mg/dL
K [2]: 3.6 meq/L
LDH [2]: 233.2 IU/L
Na [2]: 141.2 meq/L
PL [2]: 175 mg/dL
RALB [2]: 3.5 g/dL
TBIL [2]: 0.1 mg/dL
TC [2]: 93.4 mg/dL
TP [2]: 5.9 g/dL
gamma-GTP [2]: 1 IU/L
ALP [3]: 733.4 IU/L
ALT [3]: 37.6 IU/L
AST [3]: 64.6 IU/L
BUN [3]: 16.5 mg/dL
CRE [3]: 0.5 mg/dL
Ca [3]: 10.6 mg/dL
Cl [3]: 101.6 meq/L
DBIL [3]: 0.1 mg/dL
GLC [3]: 205.4 mg/dL
IP [3]: 7.5 mg/dL
K [3]: 3.7 meq/L
LDH [3]: 203.2 IU/L
Na [3]: 141.4 meq/L
PL [3]: 161.2 mg/dL
RALB [3]: 3.4 g/dL
TBIL [3]: 0.2 mg/dL
TC [3]: 84.4 mg/dL
TP [3]: 5.9 g/dL
gamma-GTP [3]: 1.2 IU/L
ALP [4]: 641.4 IU/L
ALT [4]: 41.2 IU/L
AST [4]: 62.2 IU/L
BUN [4]: 17.4 mg/dL
CRE [4]: 0.4 mg/dL
Ca [4]: 10.2 mg/dL
Cl [4]: 101.8 meq/L
DBIL [4]: 0.092 mg/dL
GLC [4]: 213.8 mg/dL
IP [4]: 7 mg/dL
K [4]: 3.6 meq/L
LDH [4]: 138.6 IU/L
Na [4]: 141.4 meq/L
PL [4]: 158.2 mg/dL
RALB [4]: 3.5 g/dL
TBIL [4]: 0.1 mg/dL
TP [4]: 6.2 g/dL
gamma-GTP [4]: 0.6 IU/L
TERMINAL_BW [5]: 224.7 g
APTT [5]: 20.4 s
Bas [5]: 0%
Eos [5]: 1.2%
Fbg [5]: 203 mg/dL
Hb [5]: 13.7 g/dL
Ht [5]: 40.1%
Lym [5]: 83.6%
MCH [5]: 20.9 pg
MCV [5]: 61 fL
Mono [5]: 2.6%
Neu [5]: 11.4%
PT [5]: 11.8 s
Plat [5]: 131.3 x10_4/uL
RBC [5]: 657.8 x10_4/ul
Ret [5]: 3.6%
WBC [5]: 92.4 x10_2/uL
KIDNEY_L [5]: 1.1 g
KIDNEY_R [5]: 1 g
KIDNEY_TOTAL [5]: 2.1 g
LIVER [5]: 13.1 g
ALP [5]: 978.4 IU/L
ALT [5]: 40.2 IU/L
AST [5]: 57.2 IU/L
BUN [5]: 14 mg/dL
CRE [5]: 0.4 mg/dL
Ca [5]: 10.9 mg/dL
Cl [5]: 103.2 meq/L
DBIL [5]: 0.08 mg/dL
GLC [5]: 199.4 mg/dL
IP [5]: 6.8 mg/dL
K [5]: 3.4 meq/L
LDH [5]: 217.4 IU/L
Na [5]: 140.6 meq/L
PL [5]: 150.4 mg/dL
RALB [5]: 3.4 g/dL
TBIL [5]: 0.1 mg/dL
TC [5]: 79.2 mg/dL
TP [5]: 5.6 g/dL
gamma-GTP [5]: 1.2 IU/L
TERMINAL_BW [6]: 253.9 g
TERMINAL_BW [7]: 309.3 g
TERMINAL_BW [8]: 374.6 g
APTT [6]: 21.5 s
Bas [6]: 0%
Eos [6]: 0.6%
Fbg [6]: 224.6 mg/dL
Hb [6]: 13.1 g/dL
Ht [6]: 38.8%
Lym [6]: 79.8%
MCH [6]: 20.5 pg
MCV [6]: 60.5 fL
Mono [6]: 2.4%
Neu [6]: 15.8%
PT [6]: 11.9 s
Plat [6]: 130.9 x10_4/uL
RBC [6]: 641.2 x10_4/ul
Ret [6]: 4.1%
WBC [6]: 127.4 x10_2/uL
APTT [7]: 22.3 s
Bas [7]: 0%
Eos [7]: 0.4%
Fbg [7]: 209.2 mg/dL
Hb [7]: 14.2 g/dL
Ht [7]: 41.2%
Lym [7]: 82.2%
MCH [7]: 20.6 pg
MCV [7]: 59.8 fL
Mono [7]: 2.4%
Neu [7]: 13.6%
PT [7]: 12.2 s
Plat [7]: 128.7 x10_4/uL
RBC [7]: 689.4 x10_4/ul
Ret [7]: 4.7%
WBC [7]: 149.2 x10_2/uL
APTT [8]: 22.9 s
Bas [8]: 0%
Eos [8]: 1%
Fbg [8]: 225.4 mg/dL
Hb [8]: 15.2 g/dL
Ht [8]: 43.4%
Lym [8]: 87.2%
MCH [8]: 19.6 pg
MCV [8]: 56 fL
Mono [8]: 2.2%
Neu [8]: 8.8%
PT [8]: 12.2 s
Plat [8]: 106.2 x10_4/uL
RBC [8]: 776.2 x10_4/ul
Ret [8]: 2.1%
WBC [8]: 142.7 x10_2/uL
KIDNEY_L [6]: 1.2 g
KIDNEY_R [6]: 1.1 g
KIDNEY_TOTAL [6]: 2.3 g
KIDNEY_L [7]: 1.3 g
KIDNEY_R [7]: 1.3 g
KIDNEY_TOTAL [7]: 2.7 g
KIDNEY_L [8]: 1.4 g
KIDNEY_R [8]: 1.4 g
KIDNEY_TOTAL [8]: 2.8 g
LIVER [6]: 14.2 g
LIVER [7]: 17.8 g
LIVER [8]: 19.5 g
ALP [6]: 803.4 IU/L
ALT [6]: 41.6 IU/L
AST [6]: 64.8 IU/L
BUN [6]: 15.4 mg/dL
CRE [6]: 0.4 mg/dL
Ca [6]: 10.7 mg/dL
Cl [6]: 101.8 meq/L
DBIL [6]: 0.098 mg/dL
GLC [6]: 212.6 mg/dL
IP [6]: 7 mg/dL
K [6]: 3.9 meq/L
LDH [6]: 261.2 IU/L
Na [6]: 139.6 meq/L
PL [6]: 174.4 mg/dL
RALB [6]: 3.6 g/dL
TBIL [6]: 0.1 mg/dL
TC [6]: 91.2 mg/dL
TP [6]: 6.1 g/dL
gamma-GTP [6]: 1.4 IU/L
ALP [7]: 774.4 IU/L
ALT [7]: 38.6 IU/L
AST [7]: 62.8 IU/L
BUN [7]: 17.5 mg/dL
CRE [7]: 0.5 mg/dL
Ca [7]: 11 mg/dL
Cl [7]: 101 meq/L
DBIL [7]: 0.1 mg/dL
GLC [7]: 193.4 mg/dL
IP [7]: 7.2 mg/dL
K [7]: 3.9 meq/L
LDH [7]: 192 IU/L
Na [7]: 140.8 meq/L
PL [7]: 170.4 mg/dL
RALB [7]: 3.5 g/dL
TBIL [7]: 0.2 mg/dL
TC [7]: 89 mg/dL
TP [7]: 6.4 g/dL
gamma-GTP [7]: 0.6 IU/L
ALP [8]: 555 IU/L
ALT [8]: 39.8 IU/L
AST [8]: 55 IU/L
BUN [8]: 20.4 mg/dL
CRE [8]: 0.5 mg/dL
Ca [8]: 10.6 mg/dL
Cl [8]: 101.4 meq/L
DBIL [8]: 0.09 mg/dL
GLC [8]: 226 mg/dL
IP [8]: 6.4 mg/dL
K [8]: 3.6 meq/L
LDH [8]: 218.2 IU/L
Na [8]: 140.6 meq/L
PL [8]: 180.8 mg/dL
RALB [8]: 3.7 g/dL
TBIL [8]: 0.1 mg/dL
TC [8]: 93.8 mg/dL
TP [8]: 6.5 g/dL
gamma-GTP [8]: 1.2 IU/L
